{
  "source": "patent US20020035097A1",
  "about": "“Method of preventing and treating chemotherapy-induced alopecia” (priority 1991, published 2002)",
  "key": {"[1]": {"system": "Cytoxan/Adriamycin-induced alopecia", "test": "Cytoxan/Adriamycin combination-induced alopecia in young rats", "type": "in vivo, rat", "settings": "0.2 μg in 0.15 ml absolute ethanol topically over head and neck, pretreatment; 11 rats per group", "description": "Eight 4-day old Sprague Dawley rats were randomized in two groups of 4 rats each. Group I, received EGF […] s.c. on the head daily for 7 days. Group II received buffer injections and served as controls. One day after stopping EGF or buffer injections all rats received Cytoxan 25 mg/kg i.p.×1 day and Adriamycin 2.5 mg/kg i.p.×3 days. […] (FIG. 5).\n(§1) 1,25-Dihydroxyvitamin D3 was dissolved in absolute ethanol and applied topically with an applicator. Control animals were similarly treated with the same amount of ethanol. Animals were then kept individually separated for a period of three hours following which the treated area was carefully washed with soap and water and dried. Treatment was given daily beginning on day 5 after birth and ending on day 10.\nAll chemotherapies were given I.P. and started at 11 days of age. CTX, 35 mg/kg, was given for one day only. VP-16, 1.5 mg/kg, was given for three days. For CTX and ADM combination, CTX, 25 mg/kg was given for one day and ADM, 2.5 mg/kg, for three days. […] Alopecia was recorded on the tenth day from beginning chemotherapy.\nA total of 4 experiments were carried out. In the first experiment, protection from Cytoxan-induced alopecia was examined. The experimental group was pretreated with 0.2 μg of 1,25-dihydroxyvitamin D3 in 0.15 ml of absolute ethanol applied topically over the head and neck and the control group received 0.15 ml of alcohol. […] The second experiment was carried out under similar conditions to examine protection from VP-16-induced alopecia. […] The third experiment was designed to examine protection from alopecia induced by Cytoxan-Adriamycin combination. There were 11 rats in each group. […] In the fourth experiment, protection from VP-16-induced alopecia was similarly examined except that the dose of 1,25-dihydroxyvitamin D3 was reduced to 0.1 μg in 0.1 ml absolute ethanol applied topically over the head area only."}, "hair growth [2]": {"system": "hair growth", "test": "Stimulation of hair regrowth on shaven backs of rats", "type": "in vivo, rat", "description": "The backs of nineteen 25 day old Sprague Dawley rats were shaven and randomized in two groups.\nGroup I (control 10 rats) received 0.1 ml of ethanol applied topically once daily to the shaven area for 14 days.\nGroup II (Calcitriol 9 rats) received 50 ng of 1,25-dihydroxyvitamin D3 in 0.1 ml of ethanol applied topically once daily to the shaven area for 14 days.\nOn day 15 stimulation of hair regrowth was assessed by reshaving an area 6 cm×6 cm in diameter. The hair was collected and weighed. The difference between two groups was highly statistically significant. P. value 0.003 (see Table III and FIG. 11)."}, "[3]": {"system": "EGF receptors on a cell line established from rat calvaria", "settings": "literature; cited from earlier work"}, "[4]": {"system": "EGF receptors on breast cancer cells", "settings": "literature; cited from earlier work"}, "Cytoxan-induced alopecia": {"system": "Cytoxan-induced alopecia", "test": "Cytoxan-induced alopecia in young rats", "type": "in vivo, rat", "settings": "0.2 μg in 0.15 ml absolute ethanol topically over head and neck, pretreatment; CTX 35 mg/kg one day"}, "VP-16-induced alopecia": {"system": "VP-16-induced alopecia", "test": "VP-16 (Etoposide)-induced alopecia in young rats", "type": "in vivo, rat", "description": "Twelve 7 day old rats were randomized in two groups. Group I was treated daily with buffer 0.1 ml s.c. for four days. The second Group was treated daily with Vitamin D3 50 μg s.c. over head for four days. After stopping the buffer or Vitamin D3 treatment, all rats received 1.5 mg/kg i.p. of VP-16 (Etoposide) daily for three days.\nas §1\nAll chemotherapies were given I.P. and started at 11 days of age. CTX, 35 mg/kg, was given for one day only. VP-16, 1.5 mg/kg, was given for three days. For CTX and ADM combination, CTX, 25 mg/kg was given for one day and ADM, 2.5 mg/kg, for three days. At these doses neither CTX nor ADM alone will produce alopecia. Alopecia was recorded on the tenth day from beginning chemotherapy.\nA total of 4 experiments were carried out. In the first experiment, protection from Cytoxan-induced alopecia was examined. The experimental group was pretreated with 0.2 μg of 1,25-dihydroxyvitamin D3 in 0.15 ml of absolute ethanol applied topically over the head and neck and the control group received 0.15 ml of alcohol. All 10 rats in the control group became totally alopecic. […] The second experiment was carried out under similar conditions to examine protection from VP-16-induced alopecia. All 10 rats in the control group developed total body alopecia. […] The third experiment was designed to examine protection from alopecia induced by Cytoxan-Adriamycin combination. There were 11 rats in each group. Six rats in the control group developed alopecia over the head and neck and 5 rats developed total body alopecia. […] In the fourth experiment, protection from VP-16-induced alopecia was similarly examined except that the dose of 1,25-dihydroxyvitamin D3 was reduced to 0.1 μg in 0.1 ml absolute ethanol applied topically over the head area only. All 10 rats in the control group became completely alopecic.\nas §1, with “RO 23-7553 (1,25 dihydroxy-16-ene-23-yne-cholecalciferol)” for “1,25-Dihydroxyvitamin D3”, “9” for “5”, “14.” for “10.”\nOn day 15 all animals received VP-16, 1.5 mg/kg i.p., for three days. Alopecia was recorded on day 25.\nThirteen rats were randomized in two groups. Experimental group, 7 rats; control group, 6 rats. The experimental group was pretreated with 1 μg of RO 23-7553 in 0.2 ml absolute ethanol applied topically over the neck and back and the control group received 0.2 ml of absolute ethanol. All six rats in the control group became totally alopecic over the neck and back."}, "hair growth [5]": {"system": "hair growth", "test": "Stimulation of hair regrowth on shaven backs of rats", "type": "in vivo, rat", "settings": "noted in rats during the chemotherapy-induced alopecia studies"}},
  "note": "Several values for one entry are separate records, joined by “and”; a condition that tells them apart may be missing. Identical values can stand only once. Entries after “also recorded” stand apart in the source; their conditions may differ.",
  "data": [
    {"compound": "C=C1/C(=C\\C=C2/CCC[C@]3(C)[C@@H]([C@H](C)CCCC(C)(C)O)CC[C@@H]23)C[C@@H](O)C[C@@H]1O", "note": "[1,25-dihydroxyvitamin D3]", "values": [
      {"measurement": "Protection from alopecia induced by Cytoxan-Adriamycin combination", "setting": "[1]", "result": "all rats in the experimental group were protected"},
      {"measurement": "Hair Weight, Mean S.E.M.", "setting": "hair growth [2]; 50 ng in 0.1 ml ethanol topically once daily for 14 days, 9 rats, day 15, P value 0.003 vs control", "result": "164 ± 13", "unit": "Mg"},
      {"measurement": "Hair Weight (individual rats)", "setting": "hair growth [2]; 50 ng in 0.1 ml ethanol topically once daily to shaven area for 14 days, 6 cm×6 cm area reshaved on day 15, listed as Calcitriol", "result": "130 Mg and 177 Mg and 140 Mg and 147 Mg and 135 Mg and 202 Mg and 143 Mg and 150 Mg and 253 Mg"},
      {"measurement": "Effect on hair growth", "setting": "hair growth [2]; administered topically in the rat", "result": "stimulation of hair growth"},
      {"measurement": "Effect on EGF receptors", "setting": "[3]", "result": "increase EGF receptors"},
      {"measurement": "Effect on EGF receptors", "setting": "[4]", "result": "increase EGF receptors"},
      {"measurement": "Protection from Cytoxan-induced alopecia", "setting": "Cytoxan-induced alopecia", "result": "all animals in the experimental group were protected"},
      {"measurement": "Protection from VP-16-induced alopecia", "setting": "VP-16-induced alopecia; 0.1 μg in 0.1 ml absolute ethanol topically over the head area only, pretreatment, VP-16 1.5 mg/kg for three days", "result": "protected primarily at the site of 1,25-dihydroxyvitamin D3 application; also recorded: less generalized and was more limited to the site of application"},
      {"measurement": "Protection from VP-16-induced alopecia", "setting": "VP-16-induced alopecia; 0.2 μg in 0.15 ml absolute ethanol topically over head and neck, pretreatment, VP-16 1.5 mg/kg for three days", "result": "all rats in the experimental group were protected"},
      {"measurement": "Extent of protection", "setting": "VP-16-induced alopecia; 0.2 μg topically over head and neck, stated for the CTX, VP-16 and CTX+ADM experiments together", "result": "not limited to the site of application but involved the entire body"},
      {"measurement": "Protection from VP-16-induced alopecia", "setting": "VP-16-induced alopecia; applied topically 0.5 μg daily in 50% ethanol or DMSO", "result": "protected"},
      {"measurement": "Coat and hair in the treated area", "setting": "hair growth [5]", "result": "better coat of hair and longer hair in the treated area"}
    ]}
  ]
}
